From patent US20080318792A1, “Extension of pollination period” (priority 2007, published 2008)

Tests used:
[1] = tested on: corn seed lot "Hughes High" (commercial hybrid); experiment: Dose-response of corn soil emergence to ABA seed treatment in calendar and thermal time; assay type: in vivo
From the text: Because corn germination and phenology is driven by heat, the corn seed industry uses thermal time (Growing-Degree-Days, or GDD) rather than calendar time to measure and predict flowering. The standard formula for calculating the GDD contribution from one calendar day for corn is: where “Max temp” is either the high temperature for the day or 86, whichever is lower, and “Min temp” is either the low temperature for the day in F or 50, whichever is higher. In growth chambers at constant temperature the calculation is trivial. For example, in our nominally 25° C. chamber, the soil temperature is actually about 26.1° C. (79 F) due to the heat contribution of the light. This time corresponds to 29 GDD. […] The purpose of this experiment was to evaluate the dose response of corn seed emergence after seed treatment with ABA in terms of thermal time. ABA was applied at 0, 1, 2, 3, 4, 5, 10, 15, 20 and 25 g/cwt as the free acid in experimental seed treatment slurries as described under Example 1. The seed lot was designated as “Hughes High” and was a commercial hybrid. The seed was planted in soil in plastic boxes as described under Example 2, and incubated at 25° C. and 18° C. as described under Example 2. Emergence was counted every 1-2 days and the data reduced as described under Example 2. The daily heat unit contribution was calculated for the two chambers, and the responses examined in cumulative thermal time as well as calendar time.

[2] = tested on: corn inbred lines B91 and B95; experiment: Field emergence and anthesis of inbred corn seed treated with ABA; assay type: in vivo
Procedure: Seed of inbred lines B91 and B95 was obtained from Iowa State University. These inbreds are from the BSCB1 heterotic group, and are representative of many male parents used in hybrid corn seed production. ABA in the form of the ammonium salt was applied at rates of 0, 25, 50 and 100 g/cwt (as free acid). Application was performed as described under Example 2 above, except the CF-Clear and Color Coat Red (Becker Underwood) were applied at 0.5 oz/cwt, and Maxim XL (Syngenta) was applied at 0.334 oz/cwt, using a slurry rate of 15 oz/cwt. The seed samples were mechanically planted in small plots of one five hundredth acre each at Woodstock, Ill., Stoughton, Wis. and Winnebago, Ill. Three plots of each treatment were planted at each location. Standard cultural practices for corn production were used. The plots were examined daily, and seedling emergence counted in each plot every day or two during the month after planting. Data were analyzed as described under Example 2 above.

[3] = ABA free acid 20 g/cwt, 25° C. soil test
[4] = Stoughton, inbred B91, ABA (ammonium salt) 25 g/cwt as free acid
[5] = Stoughton, inbred B91, ABA (ammonium salt) 50 g/cwt as free acid
[6] = Stoughton, inbred B91, ABA (ammonium salt) 100 g/cwt as free acid
[7] = Stoughton, inbred B95, ABA (ammonium salt) 25 g/cwt as free acid
[8] = Stoughton, inbred B95, ABA (ammonium salt) 50 g/cwt as free acid
[9] = Stoughton, inbred B95, ABA (ammonium salt) 100 g/cwt as free acid
[10] = Winnebago, inbred B91, ABA (ammonium salt) 25 g/cwt as free acid
[11] = Winnebago, inbred B91, ABA (ammonium salt) 50 g/cwt as free acid
[12] = Winnebago, inbred B91, ABA (ammonium salt) 100 g/cwt as free acid
[13] = Winnebago, inbred B95, ABA (ammonium salt) 25 g/cwt as free acid
[14] = Winnebago, inbred B95, ABA (ammonium salt) 50 g/cwt as free acid
[15] = Winnebago, inbred B95, ABA (ammonium salt) 100 g/cwt as free acid
[16] = Woodstock, inbred B91, ABA (ammonium salt) 25 g/cwt as free acid
[17] = Woodstock, inbred B91, ABA (ammonium salt) 50 g/cwt as free acid
[18] = Woodstock, inbred B91, ABA (ammonium salt) 100 g/cwt as free acid
[19] = Woodstock, inbred B95, ABA (ammonium salt) 25 g/cwt as free acid
[20] = Woodstock, inbred B95, ABA (ammonium salt) 50 g/cwt as free acid
[21] = Woodstock, inbred B95, ABA (ammonium salt) 100 g/cwt as free acid

`CC1=CC(=O)CC(C)(C)[C@@]1(O)/C=C/C(C)=C\C(=O)O` [ABA, S-(+)-abscisic acid] was tested, and the “effect on emergence of corn seedlings” value ([1]; ABA free acid 1-25 g/cwt, 18 and 25° C.) was “delayed emergence progressively as the dose was increased”, the Emergence ([1]; ABA free acid 1 g/cwt, 18° C. soil test) was 94.2% and the Emergence ([1]; ABA free acid 1 g/cwt, 25° C. soil test) was 97.1%. It also gave an Emergence ([1]; ABA free acid 2 g/cwt, 18° C. soil test) of 91.2%, an Emergence ([1]; ABA free acid 2 g/cwt, 25° C. soil test) of 95.5% and an Emergence ([1]; ABA free acid 3 g/cwt, 18° C. soil test) of 94.0%. The Emergence ([1]; ABA free acid 3 g/cwt, 25° C. soil test) was 92.1%, the Emergence ([1]; ABA free acid 4 g/cwt, 18° C. soil test) was 89.2% and the Emergence ([1]; ABA free acid 4 g/cwt, 25° C. soil test) was 96.3%. It also gave an Emergence ([1]; ABA free acid 5 g/cwt, 18° C. soil test) of 92.0%, an Emergence ([1]; ABA free acid 5 g/cwt, 25° C. soil test) of 95.0% and an Emergence ([1]; ABA free acid 10 g/cwt, 18° C. soil test) of 94.0%. It also gave an Emergence ([1]; ABA free acid 10 g/cwt, 25° C. soil test) of 89.0%, an Emergence ([1]; ABA free acid 15 g/cwt, 18° C. soil test) of 92.1% and an Emergence ([1]; ABA free acid 15 g/cwt, 25° C. soil test) of 96.3%. The Emergence ([1]; ABA free acid 20 g/cwt, 18° C. soil test) was 90.1%, the Emergence [1, 3] was 95.0% and the delay [1, 3] was 3.4 days. The Emergence ([1]; ABA free acid 25 g/cwt, 18° C. soil test) was 88.1%, the Emergence ([1]; ABA free acid 25 g/cwt, 25° C. soil test) was 97.1% and the effect on anthesis ([2]; Stoughton and Winnebago, ABA 25-100 g/cwt) was “progressively delayed anthesis”. The Final emergence [2, 4] was 96.2%, the “Median time to anthesis” value [2, 4] was 79.2 days and the “Median time to emergence” value [2, 4] was 11.9 days. For the same compound, the Final emergence [2, 5] was 95.0%, the “Median time to anthesis” value [2, 5] was 80.1 days and the “Median time to emergence” value [2, 5] was 12.6 days. For the same compound, the Final emergence [2, 6] was 94.3%, the “Median time to anthesis” value [2, 6] was 79.8 days and the “Median time to emergence” value [2, 6] was 14.1 days. The Final emergence [2, 7] was 98.1%, the “Median time to anthesis” value [2, 7] was 81.8 days and the “Median time to emergence” value [2, 7] was 12.5 days. The Final emergence [2, 8] was 98.1%, the “Median time to anthesis” value [2, 8] was 82.4 days and the “Median time to emergence” value [2, 8] was 14.1 days. For the same compound, the Final emergence [2, 9] was 99.0%, the “Median time to anthesis” value [2, 9] was 81.3 days and the “Median time to emergence” value [2, 9] was 14.3 days. The Final emergence [2, 10] was 98.5%, the “Median time to anthesis” value [2, 10] was 74.4 days and the “Median time to emergence” value [2, 10] was 8.8 days. The Final emergence [2, 11] was 96.4%, the “Median time to anthesis” value [2, 11] was 75.1 days and the “Median time to emergence” value [2, 11] was 9.7 days. For the same compound, the Final emergence [2, 12] was 94.4%, the “Median time to anthesis” value [2, 12] was 76.4 days and the “Median time to emergence” value [2, 12] was 11.5 days. For the same compound, the Final emergence [2, 13] was 94.8%, the “Median time to anthesis” value [2, 13] was 79.8 days and the “Median time to emergence” value [2, 13] was 10.3 days. The Final emergence [2, 14] was 95.0%, the “Median time to anthesis” value [2, 14] was 79.5 days and the “Median time to emergence” value [2, 14] was 11.3 days. The Final emergence [2, 15] was 89.8%, the “Median time to anthesis” value [2, 15] was 80.8 days and the “Median time to emergence” value [2, 15] was 12.7 days. For the same compound, the Final emergence [2, 16] was 99.0%, the “Median time to emergence” value [2, 16] was 11.4 days and the Final emergence [2, 17] was 94.5%. The “Median time to emergence” value [2, 17] was 13.7 days, the Final emergence [2, 18] was 92.0% and the “Median time to emergence” value [2, 18] was 14.3 days. The Final emergence [2, 19] was 94.8%, the “Median time to emergence” value [2, 19] was 13.8 days and the Final emergence [2, 20] was 96.8%. The “Median time to emergence” value [2, 20] was 15.3 days, the Final emergence [2, 21] was 89.6% and the “Median time to emergence” value [2, 21] was 18.9 days. For the same compound, the “effect on final stand” value ([2]; any of the locations) was “did not significantly reduce final stand” and the “effect on emergence from the soil” value ([2]; every location, ABA 25-100 g/cwt) was “progressive and significant delay in emergence”.
